Laboratory results as given in patent US20240124409A1, “GUAIANOLIDE SESQUITERPENE LACTONE DERIVATIVES AND PHARMACEUTICAL USE THEREOF” (NANJING UNIVERSITY OF CHINESE MEDICINE, priority 2021, published 2024).
pIC50: −log10 of the molar value. Converted amounts (≈) assume the structure as drawn.

What was measured:
Solubility test in water = assay type: physicochemical; conditions: thermodynamic from solid; deionized water, 37° C.
Experimental: Saturated solutions were formulated, filtered and analyzed by HPLC with a sample volume of 1 μL, 3 μL, 5 μL, 10 μL, 15 µL and 20 μL sequentially, and the standard curves of the corresponding compounds were drawn.
[…] of the above compounds were formulated, dissolved by ultrasound for 4 h, and placed on a water bath at 37° C. to stand for 1 h. The resulting unsaturated solutions were centrifuged. 30 μL of supernatants were removed, diluted by adding 200 μL of deionized water, and then filtered.

NLRP3 inflammasome = molecular target: T1, NLRP3 inflammasome (Mus musculus, UniProt Q8R4B8); assay: Inhibition of LPS and ATP induced NLRP3 inflammasome activation in BMDMs (IL-1β level); assay type: cell-based, C57BL/6 mice; conditions: read-out: IC50, inhibitory effect on activation of NLRP3 inflammasome
T1 construct: endogenous in cells; host or cells: primary bone marrow-derived macrophages (BMDMs) from female C57BL/6 mice, differentiated with rmM-CSF
Excerpt: NLRP3 is an important pattern recognition receptor, that can form the NLRP3 inflammasome through the adaptor ASC and pro-caspase-1. After activation, the NLRP3 inflammasome can mediate the activation of caspase-1, thus promoting the maturation and secretion of IL-1β. In order to determine whether the prepared guaianolide sesquiterpene lactone Compounds 1-8 can inhibit the activation of the NLRP3 inflammasome, we used LPS and ATP to induce the activation of the NLRP3 inflammasome, and observed the effects of Compounds 1-8 on the IL-1β level caused by NLRP3 inflammasome activation.
C57BL/6 mice were sacrificed by cervical dislocation, and then soaked in 75% alcohol for 5-10 min. Subsequently, two hind legs of the mice were cut off with scissors. Next, the meat was removed, and the leg bones were left, which were then washed with PBS for three times. After severing the bone at both ends, a sterile syringe filled with cold serum-free RPMI 1640 medium was used to flush the bone marrow into a 15 mL centrifuge tube. Subsequently, the bone marrow was centrifuged at 1500 rpm for 5 min, and the supernatant was discarded. The residue was resuspended with 1 mL of erythrocyte lysate, blown repeatedly, and then stood for 7 min to lyse erythrocytes. After centrifugation at 1500 rpm for 5 min, the supernatant was discarded. The residue was resuspended with the RPMI 1640 medium containing 100 ng/ml of rmM-CSF, and then transferred to a 6-well culture plate for culture.
The BMDMs were seeded on 6-well cell culture plates and then treated with 100 ng/ml ultrapure LPS for 3 h. […] Subsequently, the cells were stimulated with 5 mM ATP for 45 min. The supernatants were collected into 1.5 mL EP tubes for subsequent detection of IL-1β level.

[1] = Stability in artificial gastric juice environment (HPLC); conditions: 37° C.
Experimental: The samples were dissolved in 500 μL of chromatographic methanol, into which were added 1500 μL of artificial gastric juice, mixed well and then dissolved completely by ultrasound. 50 μL of the above solutions were aspirated precisely, diluted by adding 200 μL of chromatographic methanol, filtered and analyzed by HPLC, wherein the HPLC analysis conditions were mobile phase: 65% methanol -35% water, flow rate: 0.8 mL/min, and column temperature: 25° C., and the initial peak areas were recorded. The above solutions were placed on a constant temperature water bath at 37° C., sampled at 8 h, 16 h and 24 h respectively, and analyzed by HPLC. By calculating the peak areas respectively, the stability data of the corresponding samples in artificial gastric juice environment at 8 h, 16 h and 24 h can be obtained.

[2] = test system: mouse acute liver injury model; assay: Mouse acute liver injury model (CCl4); assay type: in vivo, C57BL/6 mice
Experimental: The mice were randomly divided into 8 groups, one of which was randomly selected as the normal group, and the other 7 groups were the model group, the parent drug 1 (0.4 and 4 μmol/kg), the hydrochloride 22 (4 μmol/kg), and the fumarate 23 (0.4 and 4 μmol/kg) groups, respectively, with 6 mice in each group. In addition to the normal group injected with 10 mL olive oil/kg, the other mice were injected intraperitoneally with 0.5 mL CCl4+9.5 mL olive oil/kg weight, i.e., the ratio of CCl4 to olive oil was 1:19. […] The mice in the normal group and model group were administered intragastrically the same volume of the solvent 0.5% CMC-Na.
1 h after the last administration, blood was collected from the venous plexus of fundus oculi, stood at room temperature for 2 h, and centrifuged at 3000 rpm for 20 min. The serum was aspirated, aliquoted, and frozen at −70° C. for subsequent use. After blood collection, the mice were sacrificed by cervical dislocation, and the abdominal cavity was opened. The livers were taken out, and rinsed twice with pre-cooled PBS. The liver left lobe tissues of the mice were cut, and fixed with 4% paraformaldehyde for 24-48 h. The remaining tissues were frozen at −70° C. for subsequent use.
μL of each sample was taken for experiments. The levels of AST and ALT in the serum of mice were detected according to the operation manual. The absorbance value was detected at the wavelength of 510 nm by a microplate reader, and the sample concentration (U/L) was calculated according to the standard curve.
The extraction method of total RNA from tissues, cDNA synthesis and the PCR amplification method are the same as those in Example 4.

T1 sequence (Q8R4B8 whole entry): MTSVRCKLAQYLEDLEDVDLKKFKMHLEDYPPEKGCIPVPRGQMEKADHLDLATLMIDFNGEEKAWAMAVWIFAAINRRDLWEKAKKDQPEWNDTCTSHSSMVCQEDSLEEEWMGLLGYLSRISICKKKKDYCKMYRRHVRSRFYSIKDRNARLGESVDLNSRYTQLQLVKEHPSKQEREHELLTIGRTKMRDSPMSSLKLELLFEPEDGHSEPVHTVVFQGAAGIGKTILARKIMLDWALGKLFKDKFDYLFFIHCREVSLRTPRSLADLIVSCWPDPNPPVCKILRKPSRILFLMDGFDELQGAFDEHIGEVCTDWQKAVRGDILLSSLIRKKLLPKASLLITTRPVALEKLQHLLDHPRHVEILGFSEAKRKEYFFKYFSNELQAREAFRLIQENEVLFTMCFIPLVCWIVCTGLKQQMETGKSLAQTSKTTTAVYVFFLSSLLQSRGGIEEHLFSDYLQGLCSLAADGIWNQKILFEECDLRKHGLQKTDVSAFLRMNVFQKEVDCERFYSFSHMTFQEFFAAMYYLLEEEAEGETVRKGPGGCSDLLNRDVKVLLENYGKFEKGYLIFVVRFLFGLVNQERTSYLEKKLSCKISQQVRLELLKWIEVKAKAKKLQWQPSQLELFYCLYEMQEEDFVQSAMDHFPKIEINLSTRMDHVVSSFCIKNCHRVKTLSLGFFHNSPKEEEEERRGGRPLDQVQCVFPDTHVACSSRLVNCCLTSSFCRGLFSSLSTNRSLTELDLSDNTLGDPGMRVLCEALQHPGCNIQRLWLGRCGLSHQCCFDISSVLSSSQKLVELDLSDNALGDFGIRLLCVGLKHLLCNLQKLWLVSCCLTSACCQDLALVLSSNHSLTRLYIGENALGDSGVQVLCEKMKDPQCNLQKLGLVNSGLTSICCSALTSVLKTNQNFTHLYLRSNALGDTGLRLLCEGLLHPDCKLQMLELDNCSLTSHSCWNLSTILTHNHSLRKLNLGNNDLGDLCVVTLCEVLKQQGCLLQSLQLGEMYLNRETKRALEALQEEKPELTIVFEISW

Compound	solubility (Solubility test in water)	pIC50 (NLRP3 inflammasome)	Non-degradation percentage at 8 h [1]	Non-degradation percentage at 16 h [1]	Non-degradation percentage at 24 h [1]	Acta2 mRNA expression ([2]; liver, 400 μmol/kg)	Col1a1 mRNA expression ([2]; liver, 400 μmol/kg)	Tgfb1 mRNA expression ([2]; liver, 400 μmol/kg)	ALT ([2]; serum, 4 μmol/kg)	AST ([2]; serum, 400 μmol/kg)
CN(C)C[C@@H]1C(=O)O[C@H]2[C@H]1CC[C@@]1(C)C[C@]13CC[C@@](C)(F)[C@H]23 [Compound 27]	208 mg/mL (≈ 674 mM)	7.10 to 7.40								
CN(C)C[C@@H]1C(=O)O[C@H]2[C@H]1CC[C@@]1(C)C[C@]13C[C@@H](O)[C@@](C)(O)[C@H]23 [Compound 26]	248 mg/mL (≈ 768 mM)	7.10 to 7.40								
C=C1CC[C@H]2C(=C)CC[C@H]3C(=C)C(=O)O[C@@H]3[C@@H]12 [dehydrocostus lactone, reference compound]	44.8 mg/mL (≈ 195 mM)		68.91%	65.42%	57.86%					
CCC(=O)O[C@]1(C)CC[C@@]23C[C@]2(C)CC[C@@H]2[C@H](OC(=O)[C@H]2CN(C)C)[C@H]31 [Compound 29]	195 mg/mL (≈ 535 mM)	7.10 to 7.40								
CO[C@]1(C)[C@H](O)C[C@@]23C[C@]2(C)CC[C@@H]2[C@H](OC(=O)[C@H]2CN(C)C)[C@@H]13 [Compound 25]	221 mg/mL (≈ 654 mM)	7.10 to 7.40								
COc1cc(C2Oc3cc([C@H]4Oc5cc(O)cc(O)c5C(=O)[C@@H]4O)ccc3OC2CO)ccc1O (some centres unmarked) [Silybin, reference compound]						2.91	1.84	1.11	121.58 U/L	301.45 U/L

Continued, in another order:

solubility (Solubility test in water)	pIC50 (NLRP3 inflammasome)	Non-degradation percentage at 8 h [1]	Non-degradation percentage at 16 h [1]	Non-degradation percentage at 24 h [1]	Compound	Acta2 mRNA expression ([2]; liver, 400 μmol/kg)	Col1a1 mRNA expression ([2]; liver, 400 μmol/kg)	Tgfb1 mRNA expression ([2]; liver, 400 μmol/kg)	ALT ([2]; serum, 4 μmol/kg)	AST ([2]; serum, 400 μmol/kg)
120 mg/mL (≈ 416 mM)	7.00 to 7.10				CC1=CC[C@@]23C[C@]2(C)CC[C@H]2[C@H](CN(C)C)C(=O)O[C@@H]2C13 (some centres unmarked) [Compound 28]					
0.00258 mg/mL (≈ 0.0106 mM)	> 7.40	99.89%	96.80%	95.72%	C=C1C(=O)O[C@@H]2C3=C(C)CC[C@]34C[C@]4(C)CC[C@@H]12 [Compound 6]					
0.0177 mg/mL (≈ 0.0555 mM)	> 7.40	99.31%	97.85%	97.65%	C=C1C(=O)O[C@@H]2[C@@H]3[C@]4(CC[C@@]3(C)OC(=O)CC)C[C@]4(C)CC[C@@H]12 [Compound 7]					
0.00852 mg/mL (≈ 0.0308 mM)	> 7.40	98.36%	95.58%	94.08%	C=C1C(=O)O[C@@H]2[C@@H]3[C@]4(CC[C@@]3(C)OC)C[C@]4(C)CC[C@@H]12 [Compound 8]					
96.6 mg/mL (≈ 334 mM)	7.10 to 7.40				CC1=CC[C@@]23C[C@]2(C)CC[C@@H]2[C@H](OC(=O)[C@H]2CN(C)C)[C@@H]13 [Compound 24]					
0.0008 mg/mL (≈ 0.00327 mM)	> 7.40	90.92%	86.62%	78.26%	C=C1C(=O)O[C@@H]2[C@H]3C(C)=CC[C@]34C[C@]4(C)CC[C@@H]12 [Compound 2]					
0.0259 mg/mL (≈ 0.0979 mM)	> 7.40	99.91%	99.85%	99.84%	C=C1C(=O)O[C@@H]2[C@@H]3[C@]4(CC[C@@]3(C)F)C[C@]4(C)CC[C@@H]12 [Compound 5]					
0.101 mg/mL (≈ 0.362 mM)	> 7.40	98.15%	96.84%	96.21%	C=C1C(=O)O[C@H]2[C@H]1CC[C@@]1(C)C[C@]13C[C@@H](O)[C@@](C)(O)[C@H]23 [Compound 4]					
0.0355 mg/mL (≈ 0.121 mM)	> 7.40	99.98%	99.87%	97.77%	C=C1C(=O)O[C@H]2[C@H]1CC[C@@]1(C)C[C@]13C[C@@H](O)[C@@](C)(OC)[C@H]23 [Compound 3]					
